Test results: ChEMBL document CHEMBL1146185, “P2-P4 macrocyclic inhibitors of hepatitis C virus NS3-4A serine protease” (Bioorg Med Chem Lett, 2006)

The molecules below were run against NS3 (Hepatitis C virus, UniProt A3EZJ3) (assay: Binding affinity to HCV NS3 protease).
Sequence of NS3 (A3EZJ3 whole entry): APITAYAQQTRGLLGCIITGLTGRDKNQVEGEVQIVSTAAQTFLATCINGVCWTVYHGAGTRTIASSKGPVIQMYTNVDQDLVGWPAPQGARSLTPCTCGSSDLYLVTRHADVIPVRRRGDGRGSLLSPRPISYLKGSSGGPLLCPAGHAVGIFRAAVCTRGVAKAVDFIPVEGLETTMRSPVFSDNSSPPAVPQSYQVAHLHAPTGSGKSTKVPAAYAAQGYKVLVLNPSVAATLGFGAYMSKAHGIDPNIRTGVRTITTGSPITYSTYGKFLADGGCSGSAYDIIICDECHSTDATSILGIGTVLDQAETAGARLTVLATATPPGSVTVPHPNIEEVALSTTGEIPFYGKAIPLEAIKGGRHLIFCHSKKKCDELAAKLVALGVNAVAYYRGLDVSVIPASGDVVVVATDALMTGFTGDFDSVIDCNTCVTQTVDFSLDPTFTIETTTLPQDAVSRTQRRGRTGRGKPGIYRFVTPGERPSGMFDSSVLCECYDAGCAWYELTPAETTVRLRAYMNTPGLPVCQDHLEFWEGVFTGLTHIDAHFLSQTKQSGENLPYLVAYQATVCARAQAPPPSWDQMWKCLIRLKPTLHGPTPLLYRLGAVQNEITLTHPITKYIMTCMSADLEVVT
Parameters: species or system Hepacivirus hominis
Molecule `CCCC(NC(=O)[C@@H]1C[C@@H]2CN1C(=O)[C@H](C1CCCCC1)NC(=O)Cc1cccc(c1)OCCCO2)C(=O)C(=O)NCC(=O)N[C@H](C(=O)N(C)C)c1ccccc1` (some centres not stated) has a Ki of 8 nM. `CCCC(NC(=O)[C@@H]1C[C@@H]2CN1C(=O)[C@H](C1CCCC(C(=O)O)C1)NC(=O)Cc1cccc(c1)OCCCO2)C(=O)C(=O)NCC(=O)N[C@H](C(=O)N(C)C)c1ccccc1` (some centres not stated) showed a Ki of 6 nM. `CCCC(NC(=O)[C@@H]1C[C@@H]2CN1C(=O)[C@H](C(C)(C)C)NC(=O)Oc1cccc(c1)OCCCO2)C(=O)C(=O)NCC(=O)N[C@H](C(=O)N(C)C)c1ccccc1` (some centres not stated) was tested, and the Ki was 200 nM. With `CCCC(NC(=O)[C@@H]1C[C@@H]2CN1C(=O)[C@H]([C@H]1CC[C@@H](C(=O)O)CC1)NC(=O)Cc1cccc(c1)OCCCO2)C(=O)C(=O)NCC(=O)N[C@H](C(=O)N(C)C)c1ccccc1` (some centres not stated) the Ki was 30 nM. In the case of `CCCC(NC(=O)[C@@H]1C[C@@H]2CN1C(=O)[C@H]([C@H]1CC[C@H](C(=O)O)CC1)NC(=O)Cc1cccc(c1)OCCCO2)C(=O)C(=O)NCC(=O)N[C@H](C(=O)N(C)C)c1ccccc1` (some centres not stated), the Ki is reported as 19 nM. With `CCCC(NC(=O)[C@@H]1C[C@@H]2CN1C(=O)[C@H](C1CCCCC1)NC(=O)N(C)Cc1cccc(c1)OCCCO2)C(=O)C(=O)NCC(=O)N[C@H](C(=O)N(C)C)c1ccccc1` (some centres not stated) the Ki was 26 nM. For `CCCC(NC(=O)[C@@H]1C[C@@H]2CN1C(=O)[C@H](C1CCCCC1)NC(=O)Nc1cccc(c1)OCCCO2)C(=O)C(=O)NCC(=O)N[C@H](C(=O)N(C)C)c1ccccc1` (some centres not stated), the Ki was 1600 nM. `CCCC(NC(=O)[C@@H]1C[C@@H]2CN1C(=O)[C@H](C1CCCCC1)NC(=O)Cc1cc(OC)cc(c1)OCCCO2)C(=O)C(=O)NCC(=O)N[C@H](C(=O)N(C)C)c1ccccc1` (some centres not stated) gave a Ki of 32 nM. For `CCCC(NC(=O)[C@@H]1C[C@@H]2CN1C(=O)[C@H](C1CCCCC1)NC(=O)Cc1cc(C)cc(c1)OCCCO2)C(=O)C(=O)NCC(=O)N[C@H](C(=O)N(C)C)c1ccccc1` (some centres not stated), the Ki was 30 nM. For `CCCC(NC(=O)[C@@H]1C[C@@H]2CN1C(=O)[C@H](C(C)(C)C)NC(=O)c1cccc(c1)OCCCCO2)C(=O)C(=O)NCC(=O)N[C@H](C(=O)N(C)C)c1ccccc1` (some centres not stated), the Ki was 210 nM. With `CCCC(NC(=O)[C@@H]1C[C@@H]2CN1C(=O)[C@H](C1CCCCC1)NC(=O)Cc1ccc(C)c(c1)OCCCO2)C(=O)C(=O)NCC(=O)N[C@H](C(=O)N(C)C)c1ccccc1` (some centres not stated) the Ki was 12 nM. `CCCC(NC(=O)[C@@H]1C[C@@H]2CN1C(=O)[C@H](C1CCCCC1)NC(=O)N(C)c1cccc(c1)OCCCO2)C(=O)C(=O)NCC(=O)N[C@H](C(=O)N(C)C)c1ccccc1` (some centres not stated) gave a Ki of 90 nM.
